The text below walks through data of patent US20250222028A1, “ENGINEERED IMMUNE CELL PLATFORM” (Cancer Research Technology Limited, priority 2022, published 2025).

For test [1], the system named is GLI1. Description: GLI1 mRNA expression by qRT-PCR in human CD8+ T cells and CTLs. Type of test: cell-based. The method, then:
(§1) FIG. 3. L-type Cav channel agonists increase expression of GLI1 and enhance specific cell killing by human CD8+ CTLs. Naïve human CD8+ T cells were purified from the buffy coat layer of blood isolated from healthy donors, and were stimulated using ImmunoCult™ CD3/CD28/CD2 human T-Cell Activator and again restimulated at day 10 for 3 days. (A) Human CTLs were restimulated on day 15-20 for 24 h with plate-bound anti-CD3 in the presence of 10 μM of FPL64176 or carrier control before RNA was extracted for qRT-PCR analysis. n=1 healthy donor. TBP is used as a reference gene. (B) Updated graph of (A) showing n=3 independent experiments/healthy donors. Gli1 expression is normalised to carrier. […] Error bars indicate SD. p values were calculated using an unpaired two-tailed Student's t test (B) or a two-way ANOVA (C/D). * indicates p<0.05, ** indicates p<0.01, **** indicates p<0.0001.
In order to assess the role of L-type Cav channel agonists in controlling the activation and effector function of human CD8+ T cells, naive primary human CD8+ T cells were purified from the buffy coat layer of blood isolated from healthy donors. Cells were stimulated using ImmunoCult™ Human CD3/CD28/CD2 T Cell Activator beads for 24 hours in the presence of 5 or 10 μM FPL 64176 or carrier control, and GLI1 mRNA expression was assessed by qRT-PCR. […]
Background: Real-time PCR tracks product formation cycle by cycle.

The test system of test [2] is L-type voltage gated Ca^2+ channel. Description: Calcium flux after TCR crosslinking in murine CD8+ CTLs. The class given is cell-based. An excerpt: FIG. 14. […] Murine CD8^+ CTLs were loaded with Calcium Sensor Dye eFluor™ 514, anti-CD3ε antibodies and calcium channel inhibitors/agonist. Other Calcium channels expressed in CD8 T cells were inhibited: “Block”=BTP2 inhibits CRAC channels downstream of the TCR, and BCTC inhibits TRPV channels. […] T cell receptor (TCR) crosslinking was induced 30 s after the start of sample acquisition by adding antibodies to crosslink the TCR. Arrows indicate the initiation of the calcium flux following TCR crosslinking. The line indicates the baseline fluorescence of the Calcium Sensor Dye eFluor™ 514. Data shown is representative of two independent experiments.
A general note: A change in cytosolic calcium serves as a functional read-out for many receptors and channels.

For test [3], the system named is GLI1. Description: GLI1 expression by qRT-PCR in NK-92 cells. The settings on record: 10 μM. The class given is cell-based, human. The procedure:
FIG. 5. L-type Cav channel agonists increase GLI1 expression in the human NK cell line NK-92 and promote specific tumour cell killing. (A) NK-92 cells were stimulated using an anti-NKp46 mAb for 4 hours in the presence of 10 μM FPL 64176, and GLI1 expression was assessed using qRT-PCR. Data is n=4 independent experiments. (B) NK-92 cells were stimulated using an anti-NKp46 mAb for 4 hours in the presence of 100 μM Bay K8644, and GLI1 expression was assessed using qRT-PCR. Data is n=3 independent experiments. (C) An LDH assay was performed to assess specific cell killing of K562 target cells at indicated effector to target ratios in the presence of 10 μM FPL 64176 (right-hand columns) or carrier control (left-hand columns). Error bars indicate SD. Data is from n=3 independent experiments.
To investigate whether L-type Cav channel agonists are also capable of enhancing GLI1 mRNA levels in the human NK cell line NK-92 (a non-Hodgkin's lymphoma cell line, expressing only Cav1.3), NK-92 cells were stimulated using an anti-NKp46 mAb (5 μg/mL) for 4 hours in the presence of either 10 μM FPL 64176 or 100 μM Bay K8644. For reference, Bay K8644 is a structural analogue of nifedipine, and acts as an L-type Cav channel agonist. GLI1 expression was assessed using qRT-PCR. […] These observations confirm that the GLI1-inducing effect of Cav agonists is not merely restricted to the compound FPL 64176. In particular, in NK cells.

A further test concerns P815 target cells. Description: VITAL cytotoxicity assay, human CD8+ CTLs with P815 target cells. Type of test: cell-based. Particulars: 10 μM, pre-incubation 40-50 mins, vs carrier control. The procedure: as §1, with “carrier. (C) Between day 16 and 24, CD8+ T cells were co-cultured with P815 target cells at indicated effector to target ratios and subjected to a VITAL cytotoxicity assay in the presence of 10 μM FPL64176 (squares) or carrier control (circles). (D) Same data as (C) represented differently.” for “carrier.”
A VITAL assay was subsequently performed to assess the role of L-type Cav agonists with regards to specific tumour cell killing by human CD8+ CTLs. […]

Each structure is given as a SMILES string.

Consider `COC(=O)c1c(C)[nH]c(C)c1C(=O)c1ccccc1Cc1ccccc1` [FPL 64176], for which the GLI1 expression result with GLI1 [1] (human CD8+ CTLs restimulated day 15-20 with plate-bound anti-CD3, 10 μM, 24 hours (FIG. 3B)) is on record as “increase”; in the test on GLI1 [1] (naive human CD8+ T cells, CD3/CD28/CD2 activator 24 hours, 5 or 10 μM (FIG. 3A)) it was “dose-dependent increase”; with GLI1 [3] (stimulated with anti-NKp46 mAb 4 hours, vs carrier control) it was “increased”; with GLI1 [3] (unstimulated cells) it was “No significant increase”. Also, the “initiation of Ca^2+ flux following TCR crosslinking” value in test [2] is “accelerates”. In test [2] (CRAC and TRPV channels blocked with BTP2 and BCTC), the “Cav-mediated Ca^2+ flux” value is listed as “specifically increases”. The “improvement of cell killing” value in the test on P815 target cells is around 70%.
